Data taken from patent US20230131899A1, “INHIBITORS OF MICROBIALLY INDUCED AMYLOID” (Axial Therapeutics, Inc., priority 2020, published 2023).
Where two headings read alike, the source gives them in different places.

Biological target: T1, E. coli CsgA (Escherichia coli, UniProt P28307)
T1 construct: made in house; host or cells: E. coli NEB 3016 slyD::kan, pET11d
Assay: In vitro ThioflavinT assay of CsgA aggregation (CsgA ThT Assay)
Type: biochemical
Settings: 1005 minutes; for remaining activity at 25 µM: compound 25 μM; for remaining activity at 100 µM: compound 100 μM
Method in brief: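 Purified C-terminal His-tagged CsgA, monomerised by desalting and 30-kDa filtration, at 2-20 μM with 20-40 μM ThT in 50 mM potassium phosphate pH 7.3, 1% DMSO, compounds 3.125-200 uM; room temperature, fluorescence (ex 438/em 495 nm) read every 15 min. Background-subtracted signal expressed as percent inhibition versus vehicle at 6-6.5 or 8-9 h, or as percent control AUC.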

[1] = read-out: CsgA ThT Assay (10 μM CsgA) % Control AUC at 1005 minutes, 25 μM (activity range), CsgA 10 μM, black plates, class symbol
[2] = read-out: CsgA ThT Assay (10 μM CsgA) % Control AUC at 1005 minutes, 25 μM, mean AUC as % of DMSO control, CsgA 10 μM, black plates
[3] = read-out: CsgA ThT Assay (10 μM CsgA) % Control AUC at 1005 minutes, 100 μM (activity range), CsgA 10 μM, black plates, class symbol
[4] = read-out: CsgA ThT Assay (10 μM CsgA) % Control AUC at 1005 minutes, 100 μM, mean AUC as % of DMSO control, CsgA 10 μM, black plates

T1 sequence (P28307 23-151): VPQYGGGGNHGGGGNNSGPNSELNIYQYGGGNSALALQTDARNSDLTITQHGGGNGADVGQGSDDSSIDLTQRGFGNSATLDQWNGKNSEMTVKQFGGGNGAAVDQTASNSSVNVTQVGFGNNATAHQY

Structure (SMILES)	remaining activity at 25 µM [1]	remaining activity at 25 µM [2]	remaining activity at 100 µM [3]	remaining activity at 100 µM [4]
O=C(O)C1CN(CCCCO)S(=O)(=O)c2c(-c3cccc(C(F)(F)F)c3)c(Cc3cccc4ccccc34)c(NC3CCCC3)c(=O)n21 (centres unmarked) [Compound 121, 7-(cyclopentylamino)-2-(4-hydroxybutyl)-8-(naphthalen-1-ylmethyl)-6-oxo-9-(3-(trifluoromethyl)phenyl)-3,4-dihydro-2H,6H-pyrido[1,2-e][1,2,5]thiadiazine-4-carboxylic acid 1,1-dioxide]	31 to 60%	32%	11 to 31%	15%
C=CCCN1CC(C(=O)O)n2c(c(-c3cccc(C(F)(F)F)c3)c(Cc3cccc4ccccc34)cc2=O)S1(=O)=O (centres unmarked) [Compound 024, 2-(but-3-en-1-yl)-8-(naphthalen-1-ylmethyl)-6-oxo-9-(3-(trifluoromethyl)phenyl)-3,4-dihydro-2H,6H-pyrido[1,2-e][1,2,5]thiadiazine-4-carboxylic acid 1,1-dioxide]	31 to 60%	35%	31 to 60%	39%
O=C(O)C1CSc2c(-c3cccc(C(F)(F)F)c3)c(Cc3cccc4ccccc34)cc(=O)n21 (racemic) [Compound 011, 7-(naphthalen-1-ylmethyl)-5-oxo-8-(3-(trifluoromethyl)phenyl)-2,3-dihydro-5H-thiazolo[3,2-a]pyridine-3-carboxylic acid]	> 60%	63%	> 60%	62%
CCN1CC(C(=O)O)n2c(c(-c3cccc(C(F)(F)F)c3)c(Cc3cccc4ccccc34)cc2=O)S1(=O)=O (single isomer, unassigned) [Compound 015a, 2-ethyl-8-(naphthalen-1-ylmethyl)-6-oxo-9-(3-(trifluoromethyl)phenyl)-3,4-dihydro-2H,6H-pyrido[1,2-e][1,2,5]thiadiazine-4-carboxylic acid 1,1-dioxide]	11 to 31%	25%	11 to 31%	17%
O=C(O)C1CN(CCCO)S(=O)(=O)c2c(-c3cccc(C(F)(F)F)c3)c(Cc3cccc4ccccc34)c(NC3CCCC3)c(=O)n21 (centres unmarked) [Compound 120, 7-(cyclopentylamino)-2-(3-hydroxypropyl)-8-(naphthalen-1-ylmethyl)-6-oxo-9-(3-(trifluoromethyl)phenyl)-3,4-dihydro-2H,6H-pyrido[1,2-e][1,2,5]thiadiazine-4-carboxylic acid 1,1-dioxide]	11 to 31%	28%	11 to 31%	12%
CCc1c(Cc2cccc3ccccc23)c(-c2cccc(C(F)(F)F)c2)c2n(c1=O)C(C(=O)O)CN(C1CCCCC1)S2(=O)=O (centres unmarked) [Compound 116, 2-cyclohexyl-7-ethyl-8-(naphthalen-1-ylmethyl)-6-oxo-9-(3-(trifluoromethyl)phenyl)-3,4-dihydro-2H,6H-pyrido[1,2-e][1,2,5]thiadiazine-4-carboxylic acid 1,1-dioxide]	11 to 31%	30%	31 to 60%	38%
CN(C)Cc1c(Cc2cccc3ccccc23)c(-c2cccc(C(F)(F)F)c2)c2n(c1=O)C(C(=O)O)CS2 (centres unmarked) [Compound 075, 6-((dimethylamino)methyl)-7-(naphthalen-1-ylmethyl)-5-oxo-8-(3-(trifluoromethyl)phenyl)-2,3-dihydro-5H-thiazolo[3,2-a]pyridine-3-carboxylic acid]	> 60%	118%	> 60%	117%
Nc1c(Cc2cccc3ccccc23)c(-c2cccc(C(F)(F)F)c2)c2n(c1=O)C(C(=O)O)CS2(=O)=O (centres unmarked) [Compound 023, 6-amino-7-(naphthalen-1-ylmethyl)-5-oxo-8-(3-(trifluoromethyl)phenyl)-2,3-dihydro-5H-thiazolo[3,2-a]pyridine-3-carboxylic acid 1,1-dioxide]	> 60%	73%	31 to 60%	34%
COc1ccc(CN2C[C@@H](C(=O)O)n3c(c(-c4cccc(C(F)(F)F)c4)c(Cc4cccc5ccccc45)cc3=O)S2(=O)=O)cc1 (single isomer, unassigned) [Compound 026a]	31 to 60%	41%		
CN(C)CCN1CC(C(=O)O)n2c(c(-c3cccc(C(F)(F)F)c3)c(Cc3cccc4ccccc34)cc2=O)S1(=O)=O (centres unmarked) [Compound 017, 2-(2-(dimethylamino)ethyl)-8-(naphthalen-1-ylmethyl)-6-oxo-9-(3-(trifluoromethyl)phenyl)-3,4-dihydro-2H,6H-pyrido[1,2-e][1,2,5]thiadiazine-4-carboxylic acid 1,1-dioxide]	> 60%	95%	> 60%	70%
O=C(O)[C@@H]1CS(=O)(=O)c2c(-c3cccc(C(F)(F)F)c3)c(Cc3cccc4ccccc34)cc(=O)n21 (single isomer, unassigned) [Compound 010a, 7-(naphthalen-1-ylmethyl)-5-oxo-8-(3-(trifluoromethyl)phenyl)-2,3-dihydro-5H-thiazolo[3,2-a]pyridine-3-carboxylic acid 1,1-dioxide]	> 60%	85%	31 to 60%	37%
O=C(O)C1CN(CCCCCO)S(=O)(=O)c2c(-c3cccc(C(F)(F)F)c3)c(Cc3cccc4ccccc34)c(NC3CCCC3)c(=O)n21 (centres unmarked) [Compound 122, 7-(cyclopentylamino)-2-(5-hydroxypentyl)-8-(naphthalen-1-ylmethyl)-6-oxo-9-(3-(trifluoromethyl)phenyl)-3,4-dihydro-2H,6H-pyrido[1,2-e][1,2,5]thiadiazine-4-carboxylic acid 1,1-dioxide]	31 to 60%	32%	11 to 31%	15%
O=C(O)C1CSc2c(-c3cccc(C(F)(F)F)c3)c(Cc3cccc4ccccc34)cc(=O)n21 (single isomer, unassigned) [Compound 011a, 7-(naphthalen-1-ylmethyl)-5-oxo-8-(3-(trifluoromethyl)phenyl)-2,3-dihydro-5H-thiazolo[3,2-a]pyridine-3-carboxylic acid]	31 to 60%	47%	31 to 60%	41%
O=C(O)C1C[S+]([O-])c2c(-c3cccc(C(F)(F)F)c3)c(Cc3cccc4ccccc34)cc(=O)n21 (racemic) [Compound 027b, 7-(naphthalen-1-ylmethyl)-5-oxo-8-(3-(trifluoromethyl)phenyl)-2,3-dihydro-5H-thiazolo[3,2-a]pyridine-3-carboxylic acid 1-oxide]	> 60%	108%	> 60%	74%
O=C(O)C1CSc2c(-c3cccc(C(F)(F)F)c3)c(Cc3cccc4ccccc34)nc(=O)n21 (centres unmarked) [Compound 022, 7-(naphthalen-1-ylmethyl)-5-oxo-8-(3-(trifluoromethyl)phenyl)-2,3-dihydro-5H-thiazolo[3,2-c]pyrimidine-3-carboxylic acid]	> 60%	70%	11 to 31%	23%
CN1CC(C(N)=O)n2c(c(-c3cccc(C(F)(F)F)c3)c(Cc3cccc4ccccc34)cc2=O)S1(=O)=O (centres unmarked) [Compound 030, 2-methyl-8-(naphthalen-1-ylmethyl)-6-oxo-9-(3-(trifluoromethyl)phenyl)-3,4-dihydro-2H,6H-pyrido[1,2-e][1,2,5]thiadiazine-4-carboxamide 1,1-dioxide]	> 60%	82%		
CCCN1CC(C(=O)O)n2c(c(-c3cccc(C(F)(F)F)c3)c(Cc3cccc4ccccc34)c(NC3CCCC3)c2=O)S1(=O)=O (centres unmarked) [Compound 126, 7-(cyclopentylamino)-8-(naphthalen-1-ylmethyl)-6-oxo-2-propyl-9-(3-(trifluoromethyl)phenyl)-3,4-dihydro-2H,6H-pyrido[1,2-e][1,2,5]thiadiazine-4-carboxylic acid 1,1-dioxide]	31 to 60%	36%	31 to 60%	40%
NC(=O)CN1CC(C(=O)O)n2c(c(-c3cccc(C(F)(F)F)c3)c(Cc3cccc4ccccc34)cc2=O)S1(=O)=O (centres unmarked) [Compound 028, 2-(2-amino-2-oxoethyl)-8-(naphthalen-1-ylmethyl)-6-oxo-9-(3-(trifluoromethyl)phenyl)-3,4-dihydro-2H,6H-pyrido[1,2-e][1,2,5]thiadiazine-4-carboxylic acid 1,1-dioxide]	> 60%	66%	11 to 31%	27%
